ChEMBL document CHEMBL1201862, “PubChem BioAssay data set” (2004)
Activity calls are given as the source filed them.

Experiments:
[1] = cytotoxicity toward NIH3T3 fibroblasts, dose response, counter-screen, cell-based, ATP luminescence, mouse fibroblasts (AID 2010); format: functional;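 note: cells exposed to compound for about 90 hours before reading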
[2] = inhibitors of intracellular T. cruzi replication, confirmation, NIH3T3 host cells, beta-gal luminescence (AID 2044); format: functional, cell-based;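 note: intracellular parasites grown in NIH/3T3 mouse fibroblasts as host cells; luminescent beta-galactosidase reporter signal from transgenic T. cruzi replicating inside host cells; inhibitors lower the luminescence signal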
[3] = molecular target: Cytochrome P450 2C19 (Homo sapiens, UniProt P33261); assay: Cytochrome panel assay with activity outcomes. Panel member name: p450-cyp2c19 Compounds with AC50 equal or less than 10 uM are considered active; format: functional
Sequence of Cytochrome P450 2C19 (P33261 whole entry): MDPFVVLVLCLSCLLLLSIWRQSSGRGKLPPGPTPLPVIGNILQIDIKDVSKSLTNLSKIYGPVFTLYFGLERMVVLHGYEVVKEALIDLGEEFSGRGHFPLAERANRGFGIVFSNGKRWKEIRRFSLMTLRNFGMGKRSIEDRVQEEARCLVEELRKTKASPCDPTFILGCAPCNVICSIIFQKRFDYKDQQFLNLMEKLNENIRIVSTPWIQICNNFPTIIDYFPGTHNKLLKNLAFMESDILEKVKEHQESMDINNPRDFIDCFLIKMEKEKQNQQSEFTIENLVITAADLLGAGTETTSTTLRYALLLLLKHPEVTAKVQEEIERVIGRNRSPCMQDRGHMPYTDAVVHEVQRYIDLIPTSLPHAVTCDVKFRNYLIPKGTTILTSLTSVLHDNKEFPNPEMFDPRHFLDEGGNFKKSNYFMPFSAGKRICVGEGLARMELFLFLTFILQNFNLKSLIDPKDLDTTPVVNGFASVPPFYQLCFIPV

[4] = tested on: Streptococcus sp. 'group A'; assay: growth inhibition of control SK(-) GAS strain, dose response, counter-screen for streptokinase expression inhibitor project, luminescence, kanamycin, BacTiterGlo, confirmation (AID 1900); format: functional, organism-based
[5] = tested on: Streptococcus; assay: Group A Streptococcus viability loss, dose response, counter-screen for streptokinase expression inhibitor project, luminescence, BacTiterGlo (AID 1915); format: functional, organism-based;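 note: potency for reduction of bacterial viability or growth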

Row | Compound | EC50 [1] | EC50 [2] | other results
1 | O=C(NC1CCN(Cc2ccccc2)CC1)c1ccc2c(c1)nc(O)n2Cc1ccc(F)cc1 | > 60 µM (inconclusive) | 0.485 µM (active) | 
2 | COc1cc(-c2nc(-c3ccc4c(c3)-c3ccccc3S4(=O)=O)c(-c3ccccc3)[nH]2)cc(OC)c1OC | > 60 µM (not active) | 1.81 µM (active) | 
3 | CCSC1=NC2(CCCCC2)Nc2sc3c(c21)CCCC3 | 20.6 µM (active) | 2.23 µM (active) | 
4 | COc1ccc(C(CCN)c2ccc3c(c2)OCO3)cc1 (configuration not stated) | > 60 µM (not active) | 7.31 µM (active) | 
5 | Cc1ccc(NC(=O)C2CC2C)cc1S(=O)(=O)N1CCOCC1 (configuration not stated) | > 30 µM (not active) | 1.91 µM (active) | 
6 | Cc1cc(C(F)F)n2nc(C(=O)Nc3cccnc3Cl)nc2n1 |  |  | AC50 [3]: inconclusive
7 | Cc1[nH]c2ccccc2c1C(=O)COC(=O)c1ccc2c(=O)n3c(nc2c1)CCC3 |  |  | EC50 [4]: 1.74 µM (active); EC50 [5]: 1.99 µM (active)
8 | COc1ccc(C2CC(c3ccc(Br)cc3)=NN2C(=O)CSC2=NN3CCCC(=O)N=C3S2)cc1 (configuration not stated) | > 60 µM (not active) | 4.07 µM (active) | 
9 | COC(=O)[C@@]1(Cc2ccc(OC)cc2)[C@H]2c3cc(C(=O)N4CCCC4)n(Cc4ccc(OC)c(OC)c4)c3C[C@H]2CN1C(=O)c1ccccc1 |  |  | AC50 ([3]; read-out: AC50): 15.8 µM (inconclusive)
10 | COc1cc(C(=O)Nc2nc(-c3ccc(C)cc3)cs2)ccc1OCC(=O)N1CCOCC1 | > 60 µM (inconclusive) | 2.04 µM (active) | 
11 | CC(C)C[C@H](NC(=O)c1[nH]cnc1C(=O)Nc1ccccc1)C(=O)OC(C)(C)C |  |  | EC50 [4]: 3.21 µM (active); EC50 [5]: 7.19 µM (active)
12 | O=[N+]([O-])c1nn(-c2ccccc2)[n+]([O-])c1N1CCN(c2ccccc2F)CC1 | > 60 µM (not active) | 0.458 µM (active) | 
13 | CC(C)=CCC/C(C)=C/CO/N=C1/C[C@@H](O)[C@@H](O)[C@@H]2[C@@H]3C(=O)N(Cc4ccccc4)C(=O)[C@H]3CC[C@H]12 |  |  | AC50 ([3]; read-out: AC50): 0.0631 µM (inconclusive)
14 | CCOC(=O)c1c(NC(=O)CN2CCCCC2)sc2c1CCN(C(=O)OCC)C2 | > 60 µM (not active) | 1.13 µM (active) | 
15 | O=C(Nc1ccc(N2CCCCC2)c(Cl)c1)c1ccc(N2CCOCC2)c([N+](=O)[O-])c1 | > 60 µM (not active) | 1.06 µM (active) | 
16 | S=C(Nc1ccccc1Cl)N(Cc1ccccc1)Cc1cccnc1 | > 60 µM (not active) | 0.992 µM (active) | 
17 | COc1ccc(CC(=O)NCC2CCCN(Cc3cc(OC)cc(OC)c3)C2)cc1 (configuration not stated) | > 30 µM (not active) | 0.197 µM (active) | 
18 | CCCOc1ccc(-c2nn(-c3ccccc3)cc2/C=C2\SC(N)=NC2=O)cc1C | > 60 µM (not active) | 1.04 µM (active) | 
19 | COc1cc(-c2nc3ccccn3c2NCc2ccccc2)ccc1SC1CCCCC1 | > 60 µM (not active) | 0.954 µM (active) | 
20 | Cc1ccc(C(=O)NCc2ccc(N3CCN(C(=O)OC(C)(C)C)CC3)cc2)cc1 |  |  | AC50 ([3]; read-out: AC50): 14.1 µM (inconclusive)
21 | COc1cc(COc2cc(N)c(Cl)cc2C(=O)CCC2CCN(CCNS(C)(=O)=O)CC2)cc(OC)c1 |  |  | AC50 ([3]; read-out: AC50): 15.8 µM (inconclusive)
